Active and inactive are the calls of the source. No rule for the calls is given here.
Biological target: Pantothenate synthetase (Mycobacterium tuberculosis (strain ATCC 25618 / H37Rv)) (UniProt P9WIL5)
Experiment: M. tuberculosis pantothenate synthetase inhibitors, biochemical confirmatory screen (AID 838)
Settings: M. tuberculosis pantothenate synthetase enzyme inhibition; for inhibition: at 100 µM, stronger effect = higher value

Sequence of Pantothenate synthetase (Mycobacterium tuberculosis (strain ATCC 25618 / H37Rv)) (P9WIL5 whole entry, looked up): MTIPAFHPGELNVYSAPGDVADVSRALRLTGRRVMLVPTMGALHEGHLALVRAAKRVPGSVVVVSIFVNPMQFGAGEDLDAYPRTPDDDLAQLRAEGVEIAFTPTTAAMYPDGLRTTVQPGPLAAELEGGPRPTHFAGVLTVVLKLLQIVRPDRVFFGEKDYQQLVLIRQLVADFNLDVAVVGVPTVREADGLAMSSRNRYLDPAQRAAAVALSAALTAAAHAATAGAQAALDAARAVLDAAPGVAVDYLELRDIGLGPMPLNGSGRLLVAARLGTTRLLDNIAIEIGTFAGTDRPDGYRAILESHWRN

SMILES | inhibition | IC50 [nM]
Cc1ccccc1Cn1cc(NC(=O)c2cc(-c3cccs3)on2)cn1 | inactive | –
CCOc1ccc(Cn2cc(NC(=O)C(C)(C)n3cc([N+](=O)[O-])cn3)cn2)cc1OCC | inactive | –
CC(C)(C)C1CCc2onc(C(=O)Nc3cnn(Cc4ccc(F)cc4F)c3)c2C1 (stereo not given) | – | 128
Cc1cc(C(=O)N2CCCN(c3cc(-c4cc(F)ccc4C)ncn3)CC2)no1 | inactive | –
CC(C)(C)c1ccc2onc(C(=O)Nc3cnn(Cc4cccc(F)c4)c3Cl)c2c1 | inactive | –
O=C(Nc1cnn(Cc2ccc(Cl)cc2Cl)c1)c1noc2c1CCCC2 | inactive | –
Cc1ccccc1Cn1cc(NC(=O)c2cc(C3CC3)on2)cn1 | inactive | –
COc1cc(CN(C)C(=O)c2ccc(N3CCc4ccccc4C3)nc2)cc(OC)c1OC | inactive | –
CC(C)(C)C1CCc2onc(C(=O)Nc3cnn(Cc4ccc(I)cc4)c3)c2C1 (stereo not given) | – | 68
Cc1cc(C(=O)N2CCCC(CN3CCc4ccccc4C3)C2)no1 (stereo not given) | inactive | –
O=C(Cn1nc(C2CC2)cc1C(F)F)Nc1cnn(Cc2c(F)cc(F)c(F)c2F)c1 | inactive | –
Cc1cc(C(=O)NCCc2nc(C(=O)NCCN(C)C)cs2)no1 | inactive | –
COc1cccc(C2c3nc[nH]c3CCN2C(=O)c2cc(C)on2)c1 (stereo not given) | inactive | –
Cc1onc(-c2ccccc2Cl)c1C(=O)Nc1cnn(Cc2ccccc2)c1 | inactive | –
CC(C)(C)c1ccc2onc(C(=O)Nc3cnn(Cc4ccc(I)cc4)c3)c2c1 | – | 36300
COCCN(CC1CCCN(C(=O)c2cc(C)on2)C1)C(C)C (stereo not given) | inactive | –
Cc1ccccc1Cn1cc(NC(=O)c2noc3c2CC(C(C)(C)C)CC3)cn1 (stereo not given) | – | 150
Cc1cc(C(=O)N2CCc3[nH]cnc3C2c2ccc(F)cc2)no1 (stereo not given) | inactive | –
O=C(Nc1cnn(Cc2ccc(F)cc2)c1)c1noc2ccccc12 | inactive | –
Cc1cc(C(=O)N2CCCC(CN3CCN(c4cnccn4)CC3)C2)no1 (stereo not given) | inactive | –
Cc1ccccc1Cn1cc(NC(=O)c2cc(-c3ccco3)on2)cn1 | inactive | –
O=C(Nc1cnn(Cc2ccc(F)cc2)c1)c1noc2ccc(-c3ccccc3)cc12 | – | 108000
O=C(Nc1cnn(Cc2ccc(F)cc2)c1)c1noc2c1CCCC2 | inactive | –
COc1ccccc1-c1cc(C(=O)Nc2cnn(Cc3ccccc3C)c2)no1 | inactive | –
CC(C)(C)c1ccc2onc(C(=O)Nc3cnn(Cc4ccc(F)cc4)c3)c2c1 | – | 351

SMILES | inhibition | IC50 [nM]
COc1cc(C(=O)Nc2cnn(Cc3cccc(I)c3)c2)cc(OC)c1OC | inactive | –
COc1ccc(-c2cc(C(=O)Nc3cnn(Cc4ccccc4C)c3)no2)cc1 | – | 47700
CCN(Cc1ccncc1)CC1CCCN(C(=O)c2cc(C)on2)C1 (stereo not given) | inactive | –
Cc1cc(C(=O)N2CCc3[nH]cnc3C2c2ccccc2F)no1 (stereo not given) | inactive | –
CC(C)(C)C1CCc2onc(C(=O)Nc3cnn(Cc4ccc(Cl)cc4Cl)c3)c2C1 (stereo not given) | – | 111
O=C(Nc1cnn(Cc2ccc(F)cc2)c1)c1cc(C2CC2)on1 | inactive | –
CC(C)(C)C1CCc2onc(C(=O)Nc3cnn(Cc4ccccc4I)c3)c2C1 (stereo not given) | – | 104
Cc1cc(C(=O)N2CCCN(c3cc(-c4ccc5ccccc5c4)ncn3)CC2)no1 | inactive | –
Cc1cc(C(=O)N2CCCC(CN3CCC(C(F)(F)F)CC3)C2)no1 (stereo not given) | inactive | –
COc1cc(CN(C)C(=O)c2ccc(N3CCC(O)(c4cccc(C(F)(F)F)c4)CC3)nc2)cc(OC)c1OC | inactive | –
O=C(Nc1cnn(Cc2ccc(Cl)cc2Cl)c1)c1noc2c1CCCCC2 | inactive | –
CC(C)(C)C1CCc2onc(C(=O)Nc3cnn(Cc4ccccc4C(F)(F)F)c3)c2C1 (stereo not given) | – | 274
O=C(Nc1cnn(Cc2ccc(F)cc2)c1)c1noc2c1CC(c1ccccc1)CC2 (stereo not given) | inactive | –
COc1cc(CN(C)C(=O)c2ccc(N3CCC(O)(Cc4ccccc4)CC3)nc2)cc(OC)c1OC | inactive | –
Cc1ccccc1Cn1cc(NC(=O)c2noc3c2CCCC3)cn1 | inactive | –
CCCN(CC1CC1)CC1CCCN(C(=O)c2cc(C)on2)C1 (stereo not given) | inactive | –
CC(C)(C)C1CCc2onc(C(=O)Nc3cnn(Cc4cccc(I)c4)c3)c2C1 (stereo not given) | – | 101
Cc1cccc(CN2C(=O)COc3cc(C(=O)N4CCN(Cc5ccccc5)CC4)ccc32)c1 | inactive | –
Cc1cc(C(=O)N2CCCC(CN(C)Cc3ccc(Cl)cc3)C2)no1 (stereo not given) | inactive | –
COc1cccc(-c2cc(C(=O)Nc3cnn(Cc4ccccc4C)c3)no2)c1 | inactive | –
Cc1cc(C(=O)N2CCc3[nH]cnc3C2c2ccc(-n3cncn3)cc2)no1 (stereo not given) | inactive | –
CCc1ccc(C2c3nc[nH]c3CCN2C(=O)c2cc(C)on2)cc1 (stereo not given) | inactive | –
CC(C)(C)c1ccc2onc(C(=O)Nc3cnn(Cc4cccc(F)c4)c3)c2c1 | – | 640
CCCc1cc(C(=O)Nc2cnn(Cc3ccc(F)cc3)c2)no1 | inactive | –
Cc1noc(C)c1CN1C(=O)COc2cc(C(=O)NCc3ccc(C(F)(F)F)nc3)ccc21 | inactive | –
